Test results as given in patent EP3919042A1, “COMPOSITION WITH SILANOL, ETHANOL AND WATER FOR GLOBAL DI[…]” (Sil'Innov scrl, priority 2020, dated 2021).

Assay: stability of MMST in water without stabilizers
Assay type: physicochemical
Details: stability declines at higher concentrations
Experimental: In a preferred embodiment of a composition according to the first aspect of the invention, the composition comprises monomethylsilanetriol (MMST). Monomethylsilanetriol (MMST, MeSiOH3 or Si(OH)3CH3) is an organosilanol. […] This organosilanol is highly bioavailable. […] MMST can advantageously be used without stabilizers in silicon equivalent concentrations up to 300 mg/l. The stability of MMST is dependent on concentration and declines at higher concentrations. The stability can further be enhanced by the use of stabilizing agents. In a preferred embodiment the stabilizing agent is based on phenol or polyphenol as described above. The same reasoning applies, mutatis mutandis, with respect to stabilizing effect on the free hydroxyl groups.

C[Si](O)(O)O [MMST, monomethylsilanetriol]
silicon equivalent concentration usable without stabilizers: up to 300 mg/l
